Data from publication PMC7248880, “Preclinical Incorporation Dosimetry of [^18F]FACH—A Novel ^18F-Labeled MCT1/MCT4 Lactate Transporter Inhibitor for Imaging Cancer Metabolism with PET” (Molecules, 2020).

Assay: Preclinical incorporation dosimetry: whole-body PET/CT in piglets, scaled to human, OLINDA 2.1, ICRP103
Assay type: in vivo, juvenile pigs
Experimental: Three piglets (age: ~6 weeks, weight: ~13–15 kg) were fasted on the day of imaging and received an intranuscular. injection of 1 mL azaperone and 4 mL ketamine to introduce anesthesia. […] During narcosis, the animals maintained spontaneous respiration and no mandatory ventilation was applied. The subjects were sequentially imaged after an iv injection (contralateral ear vein) of 156 ± 54 MBq [^18F]FACH (0.63 ± 0.49 µg) in a PET/CT system (Biograph16, SIEMENS, Erlangen, Germany). The piglets were positioned prone with legs alongside the body on a custom-made plastic trough including a piglet head-holder (Figure 5). The PET acquisition was divided into a sequential (4 × 9 min, 3 × 12 min) and a static part (1 × 24 min, 1 × 30 min, 1 × 36 min), each of which was preceded by a low-dose CT to acquire structural data for attenuation correction (AC) and anatomical orientation (Figure 6). Post mortem, the urine was collected by bladder punctuation, weighted, and divided into three 1 mL samples for activity measurements in a gamma-counter (Packard Cobra II 5003 Auto Gamma Counting System, GMI, Ramsey, MN, USA).
PET data reconstruction was done using low-dose CT attenuation correction (AC) and an iterative OSEM algorithm with 4 iterations and 8 subsets. As the PET/CT system is in daily clinical use, it is periodically subjected to detector normalization and activity calibration. Furthermore, all peripheral activity-measuring devices to be used for the investigation (dose calibrator, gamma counter) are cross-calibrated in terms of timing and a radioactivity adjustment.
The image data were analyzed with ROVER (ABX, Radeberg, Germany; v. 3.0.46h). The organs were identified and manually delineated using 3D volumes of interest (VOI). The CT data were used for anatomical orientation and for image registration with the PET data. Relevant source organs like brain, gall bladder, large intestine, small intestine, stomach, heart, kidneys, liver, lungs, pancreas, red marrow (backbone, pelvis, sternum), spleen, thyroid, testes, skeleton (bone), and the urinary bladder were delineated and the time–activity data transformed into percentage of injected dose (%IDorgan) with Equation (2). (2) %IDorgant=Aorgant×cscant/A0t [%] where Aorgant is the activity in the organ at the time t; cscant is a calibration factor representing the theoretical body activity (derived from a whole body mask of a volume that equals the body dimentions of the animal) decay corrected to t and divided by the imaged body activity in each image frame at the time t, and A0t is the injected activity decay corrected to t0.
The dose calculation has been described by our group in detail before. Briefly, due to differences in weight, size, and metabolic rates between the animal species and the human volunteers, it is necessary to map the preclinical extracted biodistribution data to human circumstances. Thus, the animal biokinetic data (time scale and %ID values) were adapted to the human circumstances according to [22] to fit the human weight, size, and metabolic rates (Equations (3) and (4)). (3) thuman=tanimal[mhuman/manimal]^0.25 (4) [%ID]/organhuman=[%ID]/ganimal×mTBanimal[g]/mTBhuman[g]×morganhuman[g]
The TIACs were estimated by exponential fitting and the dosimetry estimation was performed using OLINDA/EXM software (v. 2.1). Finally, organ doses (OD) were estimated and multiplied by tissue weighting factors as published in ICRP103 [20].

[1] = mean of three piglets, ICRP103 wT
[2] = mean of three piglets, adult male model
[3] = mean ± SD, three piglets, ICRP103 wT

CCCN(CCC[18F])c1ccc(/C=C(\C#N)C(=O)O)c(OC)c1 [[^18F]FACH, (E)-2-cyano-3-{4-[(3-[^18F]fluoropropyl)(propyl)amino]-2-methoxyphenyl}acrylic acid]
Effective dose contribution HT wT, Heart Wall (FACHpig3): 8.18E-05 mSv/MBq | Effective dose contribution HT wT, Kidneys (FACHpig3): 2.59E-04 mSv/MBq | Effective dose contribution HT wT, Left colon (FACHpig3): 5.06E-04 mSv/MBq | Effective dose contribution HT wT, Liver (FACHpig3): 1.37E-03 mSv/MBq | Effective dose contribution HT wT, Lungs (FACHpig3): 9.15E-04 mSv/MBq | Effective dose contribution HT wT, Osteogenic Cells (FACHpig3): 2.03E-04 mSv/MBq | Effective dose contribution HT wT, Pancreas (FACHpig3): 7.24E-05 mSv/MBq | Effective dose contribution HT wT, Prostate (FACHpig3): 5.95E-05 mSv/MBq | Effective dose contribution HT wT, Rectum (FACHpig3): 2.92E-04 mSv/MBq | Effective dose contribution HT wT, Red Marrow (FACHpig3): 1.47E-03 mSv/MBq | Effective dose contribution HT wT, Right colon (FACHpig3): 9.75E-04 mSv/MBq | Effective dose contribution HT wT, Salivary Glands (FACHpig3): 6.33E-05 mSv/MBq | Effective dose contribution HT wT, Small Intestine (FACHpig3): 9.09E-05 mSv/MBq | Effective dose contribution HT wT, Spleen (FACHpig3): 7.43E-05 mSv/MBq | Effective dose contribution HT wT, Stomach Wall (FACHpig3): 9.98E-04 mSv/MBq | Effective dose contribution HT wT, Testes (FACHpig3): 2.90E-04 mSv/MBq | Effective dose contribution HT wT, Thymus (FACHpig3): 6.50E-05 mSv/MBq | Effective dose contribution HT wT, Thyroid (FACHpig3): 2.77E-04 mSv/MBq | Effective dose contribution HT wT, Total Body (FACHpig3): 0.00E+00 mSv/MBq | Effective dose contribution HT wT, Urinary Bladder Wall (FACHpig3): 3.52E-03 mSv/MBq | Organ equivalent dose HT, Adrenals (FACHpig3): 1.47E-02 mSv/MBq | Organ equivalent dose HT, Brain (FACHpig3): 4.10E-03 mSv/MBq | Organ equivalent dose HT, Esophagus (FACHpig3): 8.11E-03 mSv/MBq | Organ equivalent dose HT, Eyes (FACHpig3): 5.63E-03 mSv/MBq | Organ equivalent dose HT, Gallbladder Wall (FACHpig3): 8.72E-02 mSv/MBq | Organ equivalent dose HT, Heart Wall (FACHpig3): 8.86E-03 mSv/MBq | Organ equivalent dose HT, Kidneys (FACHpig3): 2.81E-02 mSv/MBq | Organ equivalent dose HT, Left colon (FACHpig3): 1.04E-02 mSv/MBq | Organ equivalent dose HT, Liver (FACHpig3): 3.42E-02 mSv/MBq | Organ equivalent dose HT, Lungs (FACHpig3): 7.62E-03 mSv/MBq | Organ equivalent dose HT, Osteogenic Cells (FACHpig3): 2.03E-02 mSv/MBq | Organ equivalent dose HT, Pancreas (FACHpig3): 7.85E-03 mSv/MBq | Organ equivalent dose HT, Prostate (FACHpig3): 1.29E-02 mSv/MBq | Organ equivalent dose HT, Rectum (FACHpig3): 1.27E-02 mSv/MBq | Organ equivalent dose HT, Red Marrow (FACHpig3): 1.22E-02 mSv/MBq | Organ equivalent dose HT, Right colon (FACHpig3): 2.01E-02 mSv/MBq | Organ equivalent dose HT, Salivary Glands (FACHpig3): 6.33E-03 mSv/MBq | Organ equivalent dose HT, Small Intestine (FACHpig3): 9.84E-03 mSv/MBq | Organ equivalent dose HT, Spleen (FACHpig3): 8.05E-03 mSv/MBq | Organ equivalent dose HT, Stomach Wall (FACHpig3): 8.32E-03 mSv/MBq | Organ equivalent dose HT, Testes (FACHpig3): 7.26E-03 mSv/MBq | Organ equivalent dose HT, Thymus (FACHpig3): 7.04E-03 mSv/MBq | Organ equivalent dose HT, Thyroid (FACHpig3): 6.93E-03 mSv/MBq | Organ equivalent dose HT, Total Body (FACHpig3): 8.63E-03 mSv/MBq | Organ equivalent dose HT, Urinary Bladder Wall (FACHpig3): 8.80E-02 mSv/MBq | ED Contr., Adrenals [1]: 1.31 × 10^−4 mSv/MBq | ED Contr., Brain [1]: 4.69 × 10^−5 mSv/MBq | ED Contr., Esophagus [1]: 3.61 × 10^−4 mSv/MBq | ED Contr., Eyes [1]: 0.00 mSv/MBq | ED Contr., Gall Bladder Wall [1]: 4.65 × 10^−4 mSv/MBq | ED Contr., Heart Wall [1]: 8.72 × 10^−5 mSv/MBq | ED Contr., Kidneys [1]: 2.42 × 10^−4 mSv/MBq | ED Contr., Left Colon [1]: 6.63 × 10^−4 mSv/MBq | ED Contr., Liver [1]: 9.34 × 10^−4 mSv/MBq | ED Contr., Lungs [1]: 9.46 × 10^−4 mSv/MBq | ED Contr., Osteogenic Cells [1]: 2.12 × 10^−4 mSv/MBq | ED Contr., Pancreas [1]: 2.81 × 10^−4 mSv/MBq | ED Contr., Prostate [1]: 6.01 × 10^−5 mSv/MBq | ED Contr., Rectum [1]: 3.18 × 10^−4 mSv/MBq | ED Contr., Red Marrow [1]: 1.67 × 10^−3 mSv/MBq | ED Contr., Right Colon [1]: 1.16 × 10^−3 mSv/MBq | ED Contr., Salivary Glands [1]: 7.90 × 10^−5 mSv/MBq | ED Contr., Small Intestine [1]: 1.71 × 10^−4 mSv/MBq | ED Contr., Spleen [1]: 8.37 × 10^−5 mSv/MBq | ED Contr., Stomach Wall [1]: 1.31 × 10^−3 mSv/MBq | ED Contr., Testes [1]: 3.38 × 10^−4 mSv/MBq | ED Contr., Thymus [1]: 7.69 × 10^−5 mSv/MBq | ED Contr., Thyroid [1]: 2.83 × 10^−4 mSv/MBq | ED Contr., Total Body [1]: 0.00 mSv/MBq | ED Contr., Urinary Bladder Wall [1]: 2.50 × 10^−3 mSv/MBq | OD, Adrenals [2]: 1.42 × 10^−2 mSv/MBq | OD, Brain [2]: 4.69 × 10^−3 mSv/MBq | OD, Esophagus [2]: 9.03 × 10^−3 mSv/MBq | OD, Eyes [2]: 6.91 × 10^−3 mSv/MBq | OD, Gall Bladder Wall [2]: 5.04 × 10^−2 mSv/MBq | OD, Heart Wall [2]: 9.46× 10^−3 mSv/MBq | OD, Kidneys [2]: 2.62 × 10^−2 mSv/MBq | OD, Left Colon [2]: 1.37 × 10^−2 mSv/MBq | OD, Liver [2]: 2.33 × 10^−2 mSv/MBq | OD, Lungs [2]: 7.88 × 10^−3 mSv/MBq | OD, Osteogenic Cells [2]: 2.12 × 10^−2 mSv/MBq | OD, Pancreas [2]: 3.05 × 10^−2 mSv/MBq | OD, Prostate [2]: 1.30 × 10^−2 mSv/MBq | OD, Rectum [2]: 1.38 × 10^−2 mSv/MBq | OD, Red Marrow [2]: 1.39 × 10^−2 mSv/MBq | OD, Right Colon [2]: 2.40 × 10^−2 mSv/MBq | OD, Salivary Glands [2]: 7.90 × 10^−3 mSv/MBq | OD, Small Intestine [2]: 1.84 × 10^−2 mSv/MBq | OD, Spleen [2]: 9.08 × 10^−3 mSv/MBq | OD, Stomach Wall [2]: 1.09 × 10^−2 mSv/MBq | OD, Testes [2]: 8.45 × 10^−3 mSv/MBq | OD, Thymus [2]: 8.33 × 10^−3 mSv/MBq | OD, Thyroid [2]: 7.08 × 10^−3 mSv/MBq | OD, Total Body [2]: 9.76 × 10^−3 mSv/MBq | OD, Urinary Bladder Wall [2]: 6.26 × 10^−2 mSv/MBq | organ dose, gall bladder (mean ± SD, three piglets): 50.4 ± 37.5 µSv/MBq | organ dose, kidneys (mean ± SD, three piglets): 26.2 ± 2.2 µSv/MBq | organ dose, liver (mean ± SD, three piglets): 23.3 ± 13.6 µSv/MBq | organ dose, pancreas (mean ± SD, three piglets): 30.5 ± 27.3 µSv/MBq | organ dose, right colon (mean ± SD, three piglets): 24.0 ± 7.4 µSv/MBq | organ dose, urinary bladder (mean ± SD, three piglets): 62.6 ± 28.9 µSv/MBq | contribution to the ED, lungs [3]: 0.9 ± 0.05 µSv/MBq | contribution to the ED, red marrow [3]: 1.7 ± 0.3 µSv/MBq | contribution to the ED, right colon [3]: 1.2 ± 0.4 µSv/MBq | contribution to the ED, stomach [3]: 1.3 ± 0.4 µSv/MBq | contribution to the ED, urinary bladder [3]: 2.5 ± 1.1 µSv/MBq | ED to humans, preclinical (piglet biokinetic data, ICRP103 wT): 12.4 µSv/MBq | ED to humans, corrected (~300 MBq iv, corrected for up to 40% underestimation): about 6.2 mSv
